Values quoted from earlier work in patent US9480691B1, “Topical liquid containing refined peanut oil for treating skin proliferation or inflammation disorders” (Hill Dermaceuticals, Inc., priority 2009, dated 2016).

Test system: hypothalamus-pituitary-adrenal (HPA) axis
Settings: at effective and prescribed doses

## CCC(=O)O[C@]1(C(=O)CCl)[C@@H](C)C[C@H]2[C@@H]3CCC4=CC(=O)C=C[C@]4(C)[C@@]3(F)[C@@H](O)C[C@@]21C [clobetasol propionate, (11β,16β)-21-chloro-9-fluoro-11-hydroxy-16-methyl-17-(1-oxo-propoxy)pregna-1,4-diene,3,10-dione]
  effect on HPA axis: suppress the hypothalamus-pituitary-adrenal (HPA) axis
